US8093386B2, “Thioaryl substituted inhibitors of zinc proteases and their use” (Bracco Imaging S.p.A, priority 2006, dated 2012)

What was measured:
Assay type in all cases: biochemical
MMP-2 = target: T1, MMP-2 (Homo sapiens, UniProt P08253); assay: In vitro fluorometric inhibition assay of MMPs: MMP-2
T1 construct: gift of Prof; Gillian Murphy (Oncology Department, Cambridge University, UK)
T1 sequence (P08253 110-660): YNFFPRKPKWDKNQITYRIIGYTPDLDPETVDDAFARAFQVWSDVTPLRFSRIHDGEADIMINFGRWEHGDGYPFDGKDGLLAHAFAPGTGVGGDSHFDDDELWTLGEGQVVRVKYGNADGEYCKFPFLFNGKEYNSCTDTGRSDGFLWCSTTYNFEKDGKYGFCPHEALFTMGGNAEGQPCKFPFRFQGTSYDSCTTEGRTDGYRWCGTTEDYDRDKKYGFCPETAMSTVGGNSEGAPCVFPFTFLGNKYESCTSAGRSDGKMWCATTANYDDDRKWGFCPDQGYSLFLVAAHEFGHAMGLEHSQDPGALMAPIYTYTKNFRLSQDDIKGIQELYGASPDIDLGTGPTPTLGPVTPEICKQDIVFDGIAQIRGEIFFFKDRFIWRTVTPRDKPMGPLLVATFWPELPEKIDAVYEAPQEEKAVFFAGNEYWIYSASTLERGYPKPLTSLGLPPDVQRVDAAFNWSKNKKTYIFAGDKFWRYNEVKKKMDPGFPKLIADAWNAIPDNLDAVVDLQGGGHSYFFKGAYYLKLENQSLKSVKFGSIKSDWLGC
Procedure: (§1) Analysis of the In Vitro Inhibition Activity of Zinc Metalloproteinases: In Vitro Inhibition of MMMPs
(§2) The human recombinant Progelatinase A (pro-MMP-2), B (pro-MMP-9), MMP-14cd and MMP-16cd, were provided by Prof. Gillian Murphy (Oncology Department, Cambridge University, UK); pro-MMP-1, pro-MMP-3, pro-MMP-7, pro-MMP-8, pro-MMP-13 and pro-MMP-14 were bought from Calbiochem. The proenzymes were activated immediately before the use with p-aminophenylmercuric acetate (APMA 2 mM for 1 h at 37° C. for MMP-1, MMP-2 and MMP-8, 1 mM for 1 h at 37° C. for MMP-9 and MMP-7, 1 mM for 30 min at 37° C. for MMP-13). Pro-MMP-14 and pro-MMP-3 were activated with trypsin 5 μg/ml for 15 min at 37° C. followed the soybean trypsin inhibitor (SBTI) 23 μg/ml for pro-MMP-14 and 62 μg/ml for pro-MMP-3. The catalytic domains of MMP-14 and MMP-16 were utilized without activation.
(§3) For the assay measurements, the stock solutions of the inhibitor (DMSO, 100 mM) were further diluted up to 7 different concentrations (0.01 nM-300 μM) for each MMP, in the buffer for the fluorometric assay (FAB: Tris 50 mM, pH=7.5, NaCl 150 mM, CaCl2 10 mM, Brij 35 0.05% and DMSO 1%). The solutions of activated enzyme (final concentrations 2.9 nM for MMP-2, 2.7 nM for MMP-9, 2.4 nM for MMP-7, 1 nM for MMP-14 and MMP-3, 1.5 nM for MMP-8 and MMP-16cd, 0.84 nM for MMP-14cd, 0.66 nM for MMP-13 and 0.20 nM for MMP-1) and of inhibitor were incubated in the assay buffer for 4 h at 25° C. After the addition of solution of fluorogenic substrate 200 μM Mca-Arg-Pro-Lys-Pro-Val-Glu-Nva-Trp-Arg-Lys(Dnp)-NH2 (Sigma) for MMP-3 and Mca-Lys-Pro-Leu-Gly-Leu-Dpa-Ala-Arg-NH2 (Bachem) for all the other enzymes in DMSO (final concentration 2 μM), the hydrolysis were monitored every 15 sec for 20 min, recording the increase in fluorescence (λex=325 nm, λem=400 nm) with a Molecular Device SpectraMax Gemini XS plates reader. The assays were made in triplicate in a total volume of 200 μl per well on 96 well-plates for microtitolation (Corning, black, NBS). The control wells were without inhibitor.
(§4) The inhibition activity of MMP was expressed in relative fluorescence unit (RFU). The percentage of inhibition was calculated using control reactions without inhibitor.
(§5) IC50 was determined using the formula: Vi/Vo=1/(1+[I]/IC50), wherein Vi is the initial rate of the substrate scission in presence of the inhibitor at the concentration [I] and Vo is the initial rate in the absence of inhibitor. The results were analyzed with the SoftMax Pro software and the GraFit software.

MMP-14 = target: T2, MMP-14 (Homo sapiens, UniProt P50281); assay: In vitro fluorometric inhibition assay of MMPs: MMP-14
T2 construct: purchased Calbiochem
Procedure: as §1, §2, §3, §4, §5

MMP-9 = target: T3, MMP-9 (Homo sapiens, UniProt P14780); assay: In vitro fluorometric inhibition assay of MMPs: MMP-9
T3 construct: gift of Prof; Gillian Murphy (Oncology Department, Cambridge University, UK)
T3 sequence (P14780 107-707 limits assumed): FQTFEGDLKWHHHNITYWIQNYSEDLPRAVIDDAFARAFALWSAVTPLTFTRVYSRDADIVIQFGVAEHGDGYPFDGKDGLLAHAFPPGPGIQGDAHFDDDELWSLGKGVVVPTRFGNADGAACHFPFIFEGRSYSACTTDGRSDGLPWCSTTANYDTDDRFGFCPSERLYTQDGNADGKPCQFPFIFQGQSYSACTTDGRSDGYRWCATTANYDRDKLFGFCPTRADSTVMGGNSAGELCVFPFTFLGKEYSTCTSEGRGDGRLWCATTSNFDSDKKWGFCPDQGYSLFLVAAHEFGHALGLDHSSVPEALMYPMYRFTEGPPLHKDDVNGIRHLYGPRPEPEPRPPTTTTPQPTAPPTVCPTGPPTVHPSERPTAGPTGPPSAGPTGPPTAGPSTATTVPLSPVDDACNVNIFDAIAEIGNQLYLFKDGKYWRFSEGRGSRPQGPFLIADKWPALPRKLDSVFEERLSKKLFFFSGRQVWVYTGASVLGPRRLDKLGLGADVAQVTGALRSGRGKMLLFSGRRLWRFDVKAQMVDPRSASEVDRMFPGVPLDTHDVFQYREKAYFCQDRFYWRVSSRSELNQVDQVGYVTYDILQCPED
Procedure: as §1
as §2, with “The proenzymes were activated immediately before the use with p-aminophenylmercuric acetate (APMA 2 mM for 1 h at 37° C. for MMP-1, MMP-2 and MMP-8, 1 mM for 1 h at 37° C. for MMP-9 and MMP-7, 1 mM for 30 min at 37° C. for MMP-13).” left out
as §3, with “The solutions of activated enzyme (final concentrations 2.9 nM for MMP-2, 2.7 nM for MMP-9, 2.4 nM for MMP-7, 1 nM for MMP-14 and MMP-3, 1.5 nM for MMP-8 and MMP-16cd, 0.84 nM for MMP-14cd, 0.66 nM for MMP-13 and 0.20 nM for MMP-1) and of inhibitor were incubated in the assay buffer for 4 h at 25° C.” left out
as §4, §5

## COc1ccc(Oc2ccc(Sc3ccccc3C(=O)NS(C)(=O)=O)cc2)cc1 [Compound 8, 2-(4-(4-methoxyphenoxy)phenylthio)-N-(methylsulphonyl)benzamide]
MMP-2; Table III, cells marked (*)
  IC50: 12.2 ± 1.6 µM
MMP-14; Table III, cells marked (*)
  IC50: 79 ± 6 µM
MMP-9; Table III, cells marked (*)
  IC50: 17.8 ± 1.3 µM

## COc1ccc(Oc2ccc(Sc3ccccc3CC(=O)O)cc2)cc1 [Compound 11, 2-(2-(4-(4-methoxyphenoxy)phenylthio)phenyl)acetic acid]
MMP-2; Table III, cells without (*)
  IC50: 20 ± 8 µM
MMP-14; Table III, cells without (*)
  IC50: 297 ± 64 µM
MMP-9; Table III, cells without (*)
  IC50: 48.7 ± 8.6 µM

## COc1ccc(Oc2ccc(Sc3ccccc3CC(=O)NO)cc2)cc1 [Compound 13]
MMP-2; Table III, cells without (*)
  IC50: 0.568 ± 0.031 µM
MMP-9; Table III, cells without (*)
  IC50: 0.105 ± 0.013 µM

## COc1ccc(-c2ccc(Sc3ccccc3CC(=O)O)cc2)cc1 [Compound 22, 2-(2-(4′-methoxybiphenyl-4-ylthio)phenyl)acetic acid]
MMP-2; Table II, cells marked (*)
  IC50: 0.114 ± 0.005 µM
MMP-14; Table II, cells marked (*)
  IC50: 3.65 ± 0.2 µM

## COc1ccc(-c2ccc(Sc3ccccc3CC(=O)NS(C)(=O)=O)cc2)cc1 [Compound 25, 2-(2-(4′-methoxybiphenyl-4-ylthio)phenyl)-N-(methylsulphonyl)acetamide]
MMP-2; Table II, cells without (*)
  IC50: 5.34 ± 0.65 µM
MMP-14; Table II, cells without (*)
  IC50: 127 ± 6.9 µM
MMP-9; Table II, cells without (*)
  IC50: 17.7 ± 1.4 µM

## O=C(Cc1ccccc1Sc1ccc(-c2ccsc2)cc1)NO [Compound 30, N-hydroxy-2-(2-(4-(thiophene-3-yl)phenylthio)phenyl)acetamide]
MMP-2; Table I, cells marked (*)
  IC50: 0.0379 ± 0.0022 µM
MMP-9; Table I, cells marked (*)
  IC50: 1.11 ± 0.136 µM

## COc1ccc(Oc2ccc(S(=O)(=O)c3ccccc3C(=O)NS(C)(=O)=O)cc2)cc1 [Compound 38, 2-(4-(4-methoxyphenoxy)phenylsulphonyl)-N-(methylsulphonyl)benzamide]
MMP-2; Table III, cells marked (*)
  IC50: 20.5 ± 2.1 µM
MMP-14; Table III, cells marked (*)
  IC50: 528 ± 58.1 µM
MMP-9; Table III, cells marked (*)
  IC50: 101 ± 5.9 µM

## COc1ccc(Oc2ccc(Sc3ccccc3CC(=O)NS(C)(=O)=O)cc2)cc1 [Compound 39, 2-(2-(4-(4-methoxyphenoxy)phenylthio)phenyl)-N-(methylsulphonyl)acetamide]
MMP-2; Table III, cells marked (*)
  IC50: 183 ± 18.4 µM
MMP-14; Table III, cells marked (*)
  IC50: 272 ± 18.7 µM
MMP-9; Table III, cells marked (*)
  IC50: 106 ± 23.6 µM

## COc1ccc(Oc2ccc(S(=O)(=O)c3ccccc3CC(=O)NS(C)(=O)=O)cc2)cc1 [Compound 43, 2-(2-(4-(4-methoxyphenoxy)phenylsulphonyl)phenyl)-N-(methylsulphonyl)acetamide]
MMP-2; Table III, cells marked (*)
  IC50: 78.6 ± 6.3 µM
MMP-14; Table III, cells marked (*)
  IC50: 260 ± 30.1 µM
MMP-9; Table III, cells marked (*)
  IC50: 47.3 ± 2 µM

## COc1ccc(-c2ccc(Sc3ccccc3C(=O)O)cc2)cc1 [Compound 47, 2-(4′-methoxybiphenyl-4-ylthio)benzoic acid]
MMP-2; Table II, cells marked (*)
  IC50: 62.5 ± 6.27 µM
MMP-14; Table II, cells marked (*)
  IC50: 116 ± 9.79 µM
MMP-9; Table II, cells marked (*)
  IC50: 83.5 ± 5.87 µM

## COc1ccc(-c2ccc(Sc3ccccc3C(=O)NS(C)(=O)=O)cc2)cc1 [Compound 48, 2-(4′-methoxybiphenyl-4-ylthio)-N-(methylsulphonyl)benzamide]
MMP-2; Table II, cells without (*)
  IC50: 41.8 ± 5.1 µM
MMP-14; Table II, cells without (*)
  IC50: 73.1 ± 7.9 µM

## COc1ccc(-c2ccc(Sc3ccccc3C(C)C(=O)O)cc2)cc1 (centres unmarked) [Compound 54]
MMP-2; Table II, cells marked (*)
  IC50: 0.159 ± 0.0068 µM
MMP-14; Table II, cells marked (*)
  IC50: 9.95 ± 0.916 µM

## COc1ccc(-c2ccc(Sc3ccccc3C(C)C(=O)NO)cc2)cc1 (centres unmarked) [Compound 56a, N-hydroxy-2-(2-(4′-methoxybiphenyl-4-ylthio)phenyl)propanamide]
MMP-2; Table II, cells marked (*)
  IC50: 0.0272 ± 0.0016 µM
MMP-14; Table II, cells marked (*)
  IC50: 6.5 ± 0.597 µM

## COc1ccc(-c2ccc(Sc3ccccc3C(C)C(=O)NS(C)(=O)=O)cc2)cc1 (centres unmarked) [Compound 57, 2-(2-(4′-methoxybiphenyl-4-ylthio)phenyl)-N-(methylsulphonyl)propanamide]
MMP-2; Table II, cells without (*)
  IC50: 65.8 ± 5.8 µM
MMP-14; Table II, cells without (*)
  IC50: 156 ± 9.5 µM
MMP-9; Table II, cells without (*)
  IC50: 73.7 ± 7.8 µM

## COc1ccc(Oc2ccc(S(=O)(=O)c3ccccc3CP(=O)(O)O)cc2)cc1 [Compound 72, 2-(4-(4-methoxyphenoxy)phenylsulphonyl)benzyl phosphonic acid]
MMP-2; Table III, pH 6.7
  IC50: 0.571 ± 0.045 µM
MMP-14; Table III, pH 6.7
  IC50: 1.95 ± 0.212 µM
MMP-9; Table III, pH 6.7
  IC50: 0.168 ± 0.027 µM

## COc1ccc(-c2ccc(S(=O)(=O)c3ccccc3CP(=O)(O)O)cc2)cc1 [Compound 86, 2-(4′-methoxybiphenyl-4-ylsulphonyl)benzylphosphonic acid]
MMP-2; Table II, cells marked (*)
  IC50: 0.384 ± 0.031 µM
MMP-14; Table II, cells marked (*)
  IC50: 8.33 ± 0.511 µM
MMP-9; Table II, cells marked (*)
  IC50: 2.47 ± 0.212 µM

## COc1ccc(-c2ccc(S(=O)(=O)c3ccccc3C(=O)NS(C)(=O)=O)cc2)cc1 [Compound 106, 2-(4′-methoxybiphenyl-4-yl-sulphonyl)-N-(methylsulphonyl)benzamide]
MMP-2; Table II, cells without (*)
  IC50: 22.5 ± 2.1 µM
MMP-14; Table II, cells without (*)
  IC50: 64.7 ± 2.9 µM
